{
  "source": "paper PMC9927415",
  "about": "“Tyrosine Kinase Inhibitors Display Potent Activity against Cryptosporidium parvum” (Microbiology Spectrum, 2022)",
  "experiment_in_all_cases": "KINOMEscan competitive binding, whole panel",
  "key": {"panel of 203 kinases [1]": {"biological_target": "T1, panel of 203 kinases (Homo sapiens, UniProt Q8N5S9)", "T1 construct": "purchased DiscoverX (KINOMEscan)", "T1 sequence (Q8N5S9 whole entry)": "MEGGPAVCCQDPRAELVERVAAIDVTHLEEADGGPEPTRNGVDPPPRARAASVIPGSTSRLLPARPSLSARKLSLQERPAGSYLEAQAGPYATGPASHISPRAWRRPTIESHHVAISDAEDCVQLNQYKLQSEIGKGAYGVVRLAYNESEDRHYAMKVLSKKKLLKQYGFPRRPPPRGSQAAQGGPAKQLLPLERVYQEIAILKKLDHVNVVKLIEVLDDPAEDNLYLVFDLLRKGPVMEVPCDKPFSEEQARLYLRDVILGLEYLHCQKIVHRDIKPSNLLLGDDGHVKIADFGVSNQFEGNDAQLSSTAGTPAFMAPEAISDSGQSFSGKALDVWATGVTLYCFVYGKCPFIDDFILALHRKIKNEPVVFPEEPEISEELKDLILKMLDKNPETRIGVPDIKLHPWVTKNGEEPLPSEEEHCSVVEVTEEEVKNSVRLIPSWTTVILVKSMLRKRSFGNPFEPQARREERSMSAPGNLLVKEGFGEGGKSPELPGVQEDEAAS", "conditions": "10 µM, n=1; kinase CAMKK1; read-out: Percent inhibition CAMKK1", "procedure,_shortened": "(§1)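 This competitive binding format measures displacement of T7 phage-tagged kinases from an immobilized ATP-site ligand by the test compound; values are percentage inhibition.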"}, "panel of 203 kinases [2]": {"biological_target": "T2, panel of 203 kinases (Homo sapiens, UniProt Q14012)", "T2 construct": "purchased DiscoverX (KINOMEscan)", "T2 sequence (Q14012 whole entry)": "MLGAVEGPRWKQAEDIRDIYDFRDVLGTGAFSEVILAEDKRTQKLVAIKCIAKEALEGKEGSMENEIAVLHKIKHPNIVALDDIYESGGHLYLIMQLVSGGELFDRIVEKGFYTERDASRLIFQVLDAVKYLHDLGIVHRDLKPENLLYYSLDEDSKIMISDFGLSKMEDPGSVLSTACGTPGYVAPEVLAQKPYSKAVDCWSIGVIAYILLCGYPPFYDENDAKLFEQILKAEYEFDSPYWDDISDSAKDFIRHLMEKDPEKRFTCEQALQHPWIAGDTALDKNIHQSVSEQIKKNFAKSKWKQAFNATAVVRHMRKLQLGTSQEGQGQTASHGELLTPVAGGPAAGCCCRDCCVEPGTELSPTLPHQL", "conditions": "10 µM, n=1; kinase CAMK1; read-out: Percent inhibition CAMK1", "procedure,_shortened": "as §1"}, "panel of 203 kinases [3]": {"biological_target": "T3, panel of 203 kinases (Homo sapiens, UniProt Q96L34)", "T3 construct": "purchased DiscoverX (KINOMEscan)", "T3 sequence (Q96L34 1-752)": "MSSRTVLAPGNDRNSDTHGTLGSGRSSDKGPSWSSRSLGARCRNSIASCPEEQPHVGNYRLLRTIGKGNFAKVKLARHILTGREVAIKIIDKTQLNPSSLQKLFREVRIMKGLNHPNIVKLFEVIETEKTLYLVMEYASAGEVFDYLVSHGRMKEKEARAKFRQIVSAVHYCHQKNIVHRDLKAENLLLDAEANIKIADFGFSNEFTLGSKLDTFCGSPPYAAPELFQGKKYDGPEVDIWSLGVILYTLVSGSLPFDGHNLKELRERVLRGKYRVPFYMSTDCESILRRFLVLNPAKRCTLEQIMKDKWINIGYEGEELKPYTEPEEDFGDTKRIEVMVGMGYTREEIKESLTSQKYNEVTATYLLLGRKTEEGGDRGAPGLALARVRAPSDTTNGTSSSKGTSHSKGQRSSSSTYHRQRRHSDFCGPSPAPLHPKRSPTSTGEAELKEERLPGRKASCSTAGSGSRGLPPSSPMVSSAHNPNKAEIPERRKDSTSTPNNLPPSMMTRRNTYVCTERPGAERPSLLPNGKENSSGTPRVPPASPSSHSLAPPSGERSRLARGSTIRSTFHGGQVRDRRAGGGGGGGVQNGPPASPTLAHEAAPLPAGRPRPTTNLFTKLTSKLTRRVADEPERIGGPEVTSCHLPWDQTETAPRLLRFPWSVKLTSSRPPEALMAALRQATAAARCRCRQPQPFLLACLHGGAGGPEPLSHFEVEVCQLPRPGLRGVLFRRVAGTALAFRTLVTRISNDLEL", "conditions": "10 µM, n=1; kinase MARK4; read-out: Percent inhibition MARK4", "procedure,_shortened": "as §1"}, "panel of 203 kinases [4]": {"biological_target": "T4, panel of 203 kinases (Homo sapiens, UniProt Q06187)", "T4 construct": "purchased DiscoverX (KINOMEscan)", "T4 sequence (Q06187 whole entry)": "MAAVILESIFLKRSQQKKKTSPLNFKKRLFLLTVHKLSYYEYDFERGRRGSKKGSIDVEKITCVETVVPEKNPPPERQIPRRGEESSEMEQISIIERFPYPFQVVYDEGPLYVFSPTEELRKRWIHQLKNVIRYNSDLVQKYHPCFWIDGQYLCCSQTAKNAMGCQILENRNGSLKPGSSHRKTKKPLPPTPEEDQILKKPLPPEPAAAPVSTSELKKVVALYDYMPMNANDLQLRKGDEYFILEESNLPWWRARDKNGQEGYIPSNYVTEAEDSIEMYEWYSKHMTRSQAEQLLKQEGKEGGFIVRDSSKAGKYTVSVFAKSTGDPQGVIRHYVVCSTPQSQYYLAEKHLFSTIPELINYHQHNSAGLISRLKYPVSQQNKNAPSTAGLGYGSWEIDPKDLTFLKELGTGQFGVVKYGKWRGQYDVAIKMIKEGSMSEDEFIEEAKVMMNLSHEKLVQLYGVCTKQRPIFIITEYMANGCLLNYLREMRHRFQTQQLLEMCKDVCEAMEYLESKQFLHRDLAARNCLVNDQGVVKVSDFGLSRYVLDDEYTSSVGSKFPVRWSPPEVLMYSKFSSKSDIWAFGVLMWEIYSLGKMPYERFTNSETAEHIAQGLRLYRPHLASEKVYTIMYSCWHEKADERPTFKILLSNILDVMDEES", "conditions": "10 µM, n=1; kinase BTK; read-out: Percent inhibition BTK", "procedure,_shortened": "as §1"}, "panel of 203 kinases [5]": {"biological_target": "T5, panel of 203 kinases (Homo sapiens, UniProt O14976)", "T5 construct": "purchased DiscoverX (KINOMEscan)", "T5 sequence (O14976 1-1311)": "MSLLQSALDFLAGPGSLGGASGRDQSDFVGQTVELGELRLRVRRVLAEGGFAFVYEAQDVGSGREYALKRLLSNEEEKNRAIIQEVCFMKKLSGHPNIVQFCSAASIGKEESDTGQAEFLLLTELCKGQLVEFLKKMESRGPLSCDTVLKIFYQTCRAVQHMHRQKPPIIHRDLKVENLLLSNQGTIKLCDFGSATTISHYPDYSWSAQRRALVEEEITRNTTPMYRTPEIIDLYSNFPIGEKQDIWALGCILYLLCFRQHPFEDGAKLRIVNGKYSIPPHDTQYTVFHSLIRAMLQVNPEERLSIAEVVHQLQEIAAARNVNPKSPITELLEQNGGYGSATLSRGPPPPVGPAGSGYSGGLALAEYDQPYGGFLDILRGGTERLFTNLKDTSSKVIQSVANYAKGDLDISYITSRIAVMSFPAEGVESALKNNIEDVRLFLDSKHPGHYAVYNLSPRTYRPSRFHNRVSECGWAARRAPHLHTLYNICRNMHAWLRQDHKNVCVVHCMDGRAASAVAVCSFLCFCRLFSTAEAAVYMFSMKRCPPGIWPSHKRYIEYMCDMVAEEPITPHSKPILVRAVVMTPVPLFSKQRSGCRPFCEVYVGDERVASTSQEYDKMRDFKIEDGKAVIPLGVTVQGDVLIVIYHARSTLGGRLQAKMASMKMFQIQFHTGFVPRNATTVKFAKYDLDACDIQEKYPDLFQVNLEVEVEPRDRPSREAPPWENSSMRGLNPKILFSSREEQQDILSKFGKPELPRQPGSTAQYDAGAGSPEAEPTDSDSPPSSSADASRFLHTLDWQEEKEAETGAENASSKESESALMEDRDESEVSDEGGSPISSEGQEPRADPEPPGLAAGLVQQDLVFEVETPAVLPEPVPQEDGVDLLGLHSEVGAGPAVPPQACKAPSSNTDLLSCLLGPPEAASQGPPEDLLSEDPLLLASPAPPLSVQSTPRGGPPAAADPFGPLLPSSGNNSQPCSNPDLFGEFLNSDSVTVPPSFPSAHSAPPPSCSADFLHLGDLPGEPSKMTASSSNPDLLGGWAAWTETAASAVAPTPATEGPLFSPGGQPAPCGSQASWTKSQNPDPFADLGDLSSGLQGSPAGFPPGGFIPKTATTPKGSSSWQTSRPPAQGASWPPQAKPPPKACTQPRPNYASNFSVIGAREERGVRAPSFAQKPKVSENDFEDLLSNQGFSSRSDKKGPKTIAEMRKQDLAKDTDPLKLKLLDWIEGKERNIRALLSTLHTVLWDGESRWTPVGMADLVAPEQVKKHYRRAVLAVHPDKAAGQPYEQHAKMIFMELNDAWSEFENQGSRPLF", "conditions": "10 µM, n=1; kinase GAK; read-out: Percent inhibition GAK", "procedure,_shortened": "as §1"}},
  "data": [
    {"smiles": "CN1CCN(c2ccc(Nc3nccc(-c4cnn5ncccc45)n3)cc2C#N)CC1", "note": "[Compound 1]", "values": [
      {"measurement": "inhibition at 10 µM", "setting": "panel of 203 kinases [1]", "value": 99.2, "unit": "%"},
      {"measurement": "inhibition at 10 µM", "setting": "panel of 203 kinases [2]", "value": 92.3, "unit": "%"},
      {"measurement": "inhibition at 10 µM", "setting": "panel of 203 kinases [3]", "value": 0, "unit": "%"},
      {"measurement": "inhibition at 10 µM", "setting": "panel of 203 kinases [4]", "value": 0, "unit": "%"},
      {"measurement": "inhibition at 10 µM", "setting": "panel of 203 kinases [5]", "value": 97.9, "unit": "%"}
    ]},
    {"smiles": "COc1ccc(Nc2nccc(-c3cnn4ncccc34)n2)cc1", "note": "[Compound 2]", "values": [
      {"measurement": "inhibition at 10 µM", "setting": "panel of 203 kinases [1]", "value": 97.4, "unit": "%"},
      {"measurement": "inhibition at 10 µM", "setting": "panel of 203 kinases [2]", "value": 0, "unit": "%"},
      {"measurement": "inhibition at 10 µM", "setting": "panel of 203 kinases [3]", "value": 67.8, "unit": "%"},
      {"measurement": "inhibition at 10 µM", "setting": "panel of 203 kinases [4]", "value": 0, "unit": "%"},
      {"measurement": "inhibition at 10 µM", "setting": "panel of 203 kinases [5]", "value": 99.9, "unit": "%"}
    ]},
    {"smiles": "Cc1ccc(O)cc1Nc1ccnc(Nc2cccc(C(N)=O)c2)n1", "note": "[Compound 3]", "values": [
      {"measurement": "inhibition at 10 µM", "setting": "panel of 203 kinases [1]", "value": 0, "unit": "%"},
      {"measurement": "inhibition at 10 µM", "setting": "panel of 203 kinases [2]", "value": 0, "unit": "%"},
      {"measurement": "inhibition at 10 µM", "setting": "panel of 203 kinases [3]", "value": 0, "unit": "%"},
      {"measurement": "inhibition at 10 µM", "setting": "panel of 203 kinases [4]", "value": 96, "unit": "%"},
      {"measurement": "inhibition at 10 µM", "setting": "panel of 203 kinases [5]", "value": 99.8, "unit": "%"}
    ]},
    {"smiles": "Cc1ccc(O)cc1N(C)c1ccnc(Nc2cccc(S(N)(=O)=O)c2)n1", "note": "[Compound 4]", "values": [
      {"measurement": "inhibition at 10 µM", "setting": "panel of 203 kinases [1]", "value": 0, "unit": "%"},
      {"measurement": "inhibition at 10 µM", "setting": "panel of 203 kinases [2]", "value": 0, "unit": "%"},
      {"measurement": "inhibition at 10 µM", "setting": "panel of 203 kinases [3]", "value": 0, "unit": "%"},
      {"measurement": "inhibition at 10 µM", "setting": "panel of 203 kinases [4]", "value": 95, "unit": "%"},
      {"measurement": "inhibition at 10 µM", "setting": "panel of 203 kinases [5]", "value": 99.6, "unit": "%"}
    ]},
    {"smiles": "Fc1cccc(COc2ccc(Nc3ncnc4c3CN(CCN3CCOCC3)CC4)cc2Cl)c1", "note": "[Compound 6]", "values": [
      {"measurement": "inhibition at 10 µM", "setting": "panel of 203 kinases [1]", "value": 0, "unit": "%"},
      {"measurement": "inhibition at 10 µM", "setting": "panel of 203 kinases [2]", "value": 0, "unit": "%"},
      {"measurement": "inhibition at 10 µM", "setting": "panel of 203 kinases [3]", "value": 0, "unit": "%"},
      {"measurement": "inhibition at 10 µM", "setting": "panel of 203 kinases [4]", "value": 0, "unit": "%"},
      {"measurement": "inhibition at 10 µM", "setting": "panel of 203 kinases [5]", "value": 0, "unit": "%"}
    ]},
    {"smiles": "COc1cc(Nc2nccc(-c3sc(N)nc3-c3cccc(NC(=O)c4c(F)cccc4F)c3)n2)cc(OC)c1OC", "note": "[Compound 7]", "values": [
      {"measurement": "inhibition at 10 µM", "setting": "panel of 203 kinases [1]", "value": 0, "unit": "%"},
      {"measurement": "inhibition at 10 µM", "setting": "panel of 203 kinases [2]", "value": 91.5, "unit": "%"},
      {"measurement": "inhibition at 10 µM", "setting": "panel of 203 kinases [3]", "value": 0, "unit": "%"},
      {"measurement": "inhibition at 10 µM", "setting": "panel of 203 kinases [4]", "value": 100, "unit": "%"},
      {"measurement": "inhibition at 10 µM", "setting": "panel of 203 kinases [5]", "value": 100, "unit": "%"}
    ]},
    {"smiles": "C[C@@H](Oc1cc(-c2cnc3ccccn23)sc1C(N)=O)c1ccccc1Cl", "note": "[Compound 8]", "values": [
      {"measurement": "inhibition at 10 µM", "setting": "panel of 203 kinases [1]", "value": 0, "unit": "%"},
      {"measurement": "inhibition at 10 µM", "setting": "panel of 203 kinases [2]", "value": 0, "unit": "%"},
      {"measurement": "inhibition at 10 µM", "setting": "panel of 203 kinases [3]", "value": 0, "unit": "%"},
      {"measurement": "inhibition at 10 µM", "setting": "panel of 203 kinases [4]", "value": 0, "unit": "%"},
      {"measurement": "inhibition at 10 µM", "setting": "panel of 203 kinases [5]", "value": 97.2, "unit": "%"}
    ]},
    {"smiles": "c1ccc(COc2cccc(-c3ccnc4[nH]ccc34)c2)cc1", "note": "[Compound 9]", "values": [
      {"measurement": "inhibition at 10 µM", "setting": "panel of 203 kinases [1]", "value": 0, "unit": "%"},
      {"measurement": "inhibition at 10 µM", "setting": "panel of 203 kinases [2]", "value": 0, "unit": "%"},
      {"measurement": "inhibition at 10 µM", "setting": "panel of 203 kinases [3]", "value": 0, "unit": "%"},
      {"measurement": "inhibition at 10 µM", "setting": "panel of 203 kinases [4]", "value": 0, "unit": "%"},
      {"measurement": "inhibition at 10 µM", "setting": "panel of 203 kinases [5]", "value": 0, "unit": "%"}
    ]},
    {"smiles": "Clc1ccc(Nc2ncc(-c3ccccc3)s2)cc1", "note": "[Compound 10]", "values": [
      {"measurement": "inhibition at 10 µM", "setting": "panel of 203 kinases [1]", "value": 0, "unit": "%"},
      {"measurement": "inhibition at 10 µM", "setting": "panel of 203 kinases [2]", "value": 0, "unit": "%"},
      {"measurement": "inhibition at 10 µM", "setting": "panel of 203 kinases [3]", "value": 0, "unit": "%"},
      {"measurement": "inhibition at 10 µM", "setting": "panel of 203 kinases [4]", "value": 0, "unit": "%"},
      {"measurement": "inhibition at 10 µM", "setting": "panel of 203 kinases [5]", "value": 0, "unit": "%"}
    ]},
    {"smiles": "Nc1ncc2c(-c3ccncc3)c[nH]c2n1", "note": "[Compound 11]", "values": [
      {"measurement": "inhibition at 10 µM", "setting": "panel of 203 kinases [1]", "value": 0, "unit": "%"},
      {"measurement": "inhibition at 10 µM", "setting": "panel of 203 kinases [2]", "value": 0, "unit": "%"},
      {"measurement": "inhibition at 10 µM", "setting": "panel of 203 kinases [3]", "value": 93.8, "unit": "%"},
      {"measurement": "inhibition at 10 µM", "setting": "panel of 203 kinases [4]", "value": 0, "unit": "%"},
      {"measurement": "inhibition at 10 µM", "setting": "panel of 203 kinases [5]", "value": 97.2, "unit": "%"}
    ]}
  ]
}
